Article PMC3462244 (2012)

Target: cannabinoid receptor subtype 2 (CB2) (Homo sapiens, UniProt P34972)
Experiment: [3H]CP-55940 radioligand competition binding, CHO-CB2 cell membranes

Sequence of cannabinoid receptor subtype 2 (CB2) (P34972 whole entry): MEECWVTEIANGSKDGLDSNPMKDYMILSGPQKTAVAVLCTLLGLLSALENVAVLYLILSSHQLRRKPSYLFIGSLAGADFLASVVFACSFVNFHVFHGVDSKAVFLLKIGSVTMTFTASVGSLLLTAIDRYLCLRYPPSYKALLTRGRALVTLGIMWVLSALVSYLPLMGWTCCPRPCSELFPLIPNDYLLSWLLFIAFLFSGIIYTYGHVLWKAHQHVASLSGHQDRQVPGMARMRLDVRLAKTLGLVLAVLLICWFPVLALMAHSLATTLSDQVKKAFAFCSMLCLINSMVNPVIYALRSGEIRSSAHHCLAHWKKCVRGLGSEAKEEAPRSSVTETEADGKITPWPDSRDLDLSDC

SMILES: COC(=O)C1(C)CCCC2(C)c3cc(O)c(C(C)C)cc3CCC12 (stereo not shown) [compound 49888, NSC49888]
- Ki: 6.7 nM

SMILES: COc1ccc2c(c1)CCC1=C2CC2C(=O)C1(C)CCC2(C)OC(C)=O (stereo not shown) [compound 76301, NSC76301]
- Experimental pKi: 5.42 pKi

SMILES: COc1ccc2c(c1)c1c(C)c3cnccc3c(C)c1n2CCCN1C(=O)c2ccccc2C1=O [compound 174122, NSC174122]
- Experimental pKi: 5.59 pKi

SMILES: CC(=O)OC1CC2C3(C)CCC4C(C)(C)CCCC4(C)C3CC(O)C2(C)C2C1=COC2OC(C)=O (stereo not shown) [compound 369049, NSC369049]
- Experimental pKi: 5.51 pKi
